One series relates to mouse hair loss model. Kind of series: Mouse hair loss (androgenic alopecia) model: hair length. Conditions: mouse AGA model; external 2% tincture twice a day. The class given is in vivo, C57BL/6 mice. The source says: (1) Preparation method of tincture of compounds CLY-1, CLY-2, CLY-3, CLY-4, CLY-8, CLY-11, CLY-19, CLY-36, and CLY-39: 60% ethanol was mixed with the above compounds to prepare a tincture of 2% concentration.
(2) Positive treatment drug: 2% minoxidil tincture (produced by the Institute of Dermatology, Chinese Academy of Medical Sciences)
The experimental mice were divided into the negative control group (external use of 60% ethanol), model group (external use of 60% ethanol), positive control group (external use of 2% minoxidil tincture), CLY-1 external treatment group (external use of 2% CLY-1 tincture), CLY-2 external treatment group (external use of 2% CLY-2 tincture), CLY-3 external treatment group (external use of 2% CLY-3 tincture), CLY-4 external treatment group (external use of 2% CLY-4 tincture), CLY-8 external treatment group (external use of 2% CLY-8 tincture) CLY-11 external treatment group (2% CLY-11 tincture), CLY-19 external treatment group (2% CLY-19 tincture), CLY-36 external treatment group (2% CLY-36 tincture), and CLY-39 external treatment group (2% CLY-39 tincture). There were 6 animals in each group, half male and half female. An area of 4 cm×5 cm from the back of experimental mice with hair removed was selected, and the hair removal area was painted yellow with 3% picric acid solution to determine the observation area of the hair removal experiment. In addition to the negative control group, mice in other groups were injected subcutaneously with testosterone propionate injection [8 ml/(kg·d)] at the back of the neck, once a day, for 60 consecutive days, to establish the model of androgenic alopecia (AGA). At the same time of modeling, the rats in the corresponding drug group were smeared with drugs on the observation area of the back at the rate of 1 ml/(piece·time), twice a day, with an interval of 2 hours. The normal control group and the model control group were smeared with the excipient (60% ethanol solution), 1 ml/(one time), twice a day, for 60 consecutive days.
10 hairs were extracted from the observation area on the back of each mouse every 15 days after administration, and the hair length was measured with a vernier caliper. After 60 days of administration, the skin of the experimental observation area was taken for routine tissue dehydration, paraffin embedding, HE staining, and light microscopy to observe the histopathological changes of mouse skin hair follicles and sebaceous glands. Semi-quantitative analysis was performed for each group. The grading criteria are as follows: the normal structure of dermal tissue cells, subcutaneous hair follicles, and sebaceous glands is marked as […]: no hyperplasia of dermal tissue is found, the lesions of hair follicles and sebaceous glands are limited, and no inflammation is found under the skin is marked as “+”: no obvious hyperplasia of dermal tissue is found, and the follicles are obviously cystic. No obvious hyperplasia of sebaceous glands is found, and no inflammation is found under the skin is marked as “+”: the dermal tissue has segmental hyperplasia, which is not obvious, A small number of hair follicles have cystic changes, and the sebaceous glands have mild hyperplasia and hypertrophy. There is no obvious inflammation under the skin, which is marked as “++”: the dermal tissue cells of the skin have different degrees of segmental hyperplasia, and some hair follicles have cystic changes, showing uneven size of hair follicles, and no cells around. The sebaceous glands have hyperplasia, and the nuclei in the proliferative glands are few. A few subcutaneous mild inflammatory hyperplasia is marked as “+++”.

Series [1] in a line: Pharmacokinetic properties of rats (bioavailability). Format: in vivo. The following applies: rat, po; male SD rats; intravenous 1 mg/kg, intragastric 5 mg/kg; plasma LC/MS/MS. As to the method: Male SD rats were randomly assigned to each group, 12 rats in each compound group, and then randomly divided into two groups. Six rats were administered intravenously (1 mg/kg), and blood was collected and plasma was separated respectively at 0.0833, 0.25, 0.5, 1, 2, 4, 6, 8, and 24 hours after administration. The other six rats were administered intragastrically (5 mg/kg), and blood was collected and plasma was separated respectively at 0.25, 0.5, 1, 2, 4, 6, 8, and 24 hours after administration. The concentration of each compound in plasma was determined by LC/MS/MS method, and the relevant pharmacokinetic parameters were calculated by using the software Phoenix WinNonlin 6.2.1, the bioavailability in rats was calculated, and the pharmacokinetic properties of each compound were evaluated.

Marks after values point to notes of the source that are not given here.

As a reminder, the bioavailability is dose-corrected exposure relative to a reference, in per cent. Low readings indicate poor availability, high ones good availability. As to `O=C(c1ccc(-c2ccccc2Cl)cc1)N(c1ncccc1Cl)[C@@H]1CCCNC1` [CLY-36], in the series on mouse hair loss model, the 15-day hair length is on record as 0.628* cm, the 30-day hair length is 0.824* cm, the 45-day hair length was 0.823* cm and the 60-day hair length is given as 0.919* cm. Also, in series [1], the bioavailability came to 68.6%.
On the same counts, the results for `CNC1CCCC(N(C(=O)c2ccc(-n3nnc4cccnc43)cc2)c2ncccc2Cl)C1` (centres unmarked) [CLY-3] are 0.646* cm, 0.843* cm, 0.847* cm, 0.946* cm and 69.5%.
On the same counts, the results for `Nc1ccccc1-c1ccc(C(=O)N(c2ncccc2Cl)[C@@H]2CCCNC2)cc1` [CLY-39] are 0.665* cm, 0.845* cm, 0.867* cm, 0.956* cm and 65.6%.
On the same counts, the results for `O=C(c1ccc(-n2nnc3cccnc32)cc1)N(c1ncccc1Cl)[C@@H]1CCNC1` [CLY-8, (R)-4-(3H-[1,2,3]triazolo[4,5-b]pyridin-3-yl)-N-(3-chloropyridin-2-yl)-N-(pyrrolidin-3-yl)benzamide] are 0.682 * cm, 0.872* cm, 0.886* cm, 0.971* cm and 78.2%.
With `Nc1cc(N2CCCCC2)nc(N)[n+]1[O-]` [Positive control group, minoxidil, reference compound], in the series with mouse hair loss model, the 15-day hair length is on record as 0.591* cm, the 30-day hair length was 0.814* cm, the 45-day hair length came out at 0.825 cm and the 60-day hair length is reported as 0.842* cm.
`COC1CCCC(N(C(=O)c2ccc(-n3nnc4cccnc43)cc2)c2ncccc2Cl)C1` (centres unmarked) [CLY-5]: the bioavailability in series [1] came to 53.8%.
For `CN1CCC[C@@H](N(C(=O)c2ccc(-n3nnc4cccnc43)cc2)c2ncccc2Cl)C1` [CLY-1, (R)-4-(3H-[1,2,3]triazolo[4,5-b]pyridin-3-yl)-N-(3-chloropyridin-2-yl)-N-(1-methylpiperidin-3-yl)benzamide], in the series with mouse hair loss model, the 15-day hair length is reported as 0.653* cm, the 30-day hair length is on record as 0.851* cm, the 45-day hair length is 0.858* cm and the 60-day hair length is reported as 0.951* cm. In series [1], the bioavailability is 69.8%.
On the same counts, the results for `CCN1CCC[C@@H](N(C(=O)c2ccc(-n3nnc4cccnc43)cc2)c2ncccc2Cl)C1` [CLY-2, (R)-4-(3H-[1,2,3]triazolo[4,5-b]pyridin-3-yl)-N-(3-chloropyridin-2-yl)-N-(1-ethylpiperidin-3-yl)benzamide] are 0.676* cm, 0.865* cm, 0.869* cm, 0.962* cm and 72.6%.
On the same counts, the results for `NC1CCCC(N(C(=O)c2ccc(-n3nnc4cccnc43)cc2)c2ncccc2Cl)C1` (centres unmarked) [CLY-11] are 0.637* cm, 0.831* cm, 0.834* cm, 0.932* cm and 63.5%.
On the same counts, the results for `O=C(c1ccc(-n2nnc3cccnc32)cc1)N(c1ncccc1Cl)C1CCCC(O)C1` (centres unmarked) [CLY-4] are 0.641* cm, 0.837* cm, 0.841* cm, 0.939* cm and 59.5%.
With `O=C(c1ccc(-c2ccccc2-c2nnn[nH]2)cc1)N(c1ncccc1Cl)[C@@H]1CCCNC1` [CLY-19], in the series with mouse hair loss model, the 15-day hair length is recorded as 0.623* cm, the 30-day hair length was 0.826* cm, the 45-day hair length is listed as 0.828* cm and the 60-day hair length is 0.915* cm. In series [1], this molecule gave a bioavailability of 66.3%.

These data come from US20240300945A1, “CLY SERIES COMPOUND, PREPARATION METHOD THEREFOR AND USE THEREOF IN PREPARATION OF DRUGS” (NANJING WELLBEST PHARMACEUTICAL CO., LTD, priority 2021, published 2024).
